Laboratory results taken from ChEMBL document CHEMBL1129721, “Application of the Heck reaction in the synthesis of truncated naphthoic acid retinoids” (1996).
The source made the active and inactive calls. The rule behind the calls is not given here.

Legend:
[1] = biological target: T1, Retinoic acid receptor beta (Homo sapiens) (UniProt P10826); assay: Transcriptional activation of retinoic acid RAR-beta receptor; Not active
T1 sequence (whole entry): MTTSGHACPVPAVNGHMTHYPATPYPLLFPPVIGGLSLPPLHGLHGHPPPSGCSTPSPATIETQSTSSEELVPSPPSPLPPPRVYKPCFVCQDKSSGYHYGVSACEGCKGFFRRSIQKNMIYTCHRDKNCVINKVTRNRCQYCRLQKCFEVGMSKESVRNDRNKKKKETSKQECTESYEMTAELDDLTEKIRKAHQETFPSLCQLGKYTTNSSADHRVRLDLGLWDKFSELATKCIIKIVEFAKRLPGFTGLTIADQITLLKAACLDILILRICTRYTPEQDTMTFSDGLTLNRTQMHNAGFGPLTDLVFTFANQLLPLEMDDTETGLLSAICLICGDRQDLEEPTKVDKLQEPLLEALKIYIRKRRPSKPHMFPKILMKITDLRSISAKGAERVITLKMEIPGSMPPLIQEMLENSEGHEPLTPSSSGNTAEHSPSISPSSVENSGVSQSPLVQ

[2] = biological target: T2, Retinoic acid receptor alpha (Homo sapiens) (UniProt P10276); assay: Transcriptional activation of retinoic acid RAR-alpha receptor; Not active
T2 sequence (whole entry): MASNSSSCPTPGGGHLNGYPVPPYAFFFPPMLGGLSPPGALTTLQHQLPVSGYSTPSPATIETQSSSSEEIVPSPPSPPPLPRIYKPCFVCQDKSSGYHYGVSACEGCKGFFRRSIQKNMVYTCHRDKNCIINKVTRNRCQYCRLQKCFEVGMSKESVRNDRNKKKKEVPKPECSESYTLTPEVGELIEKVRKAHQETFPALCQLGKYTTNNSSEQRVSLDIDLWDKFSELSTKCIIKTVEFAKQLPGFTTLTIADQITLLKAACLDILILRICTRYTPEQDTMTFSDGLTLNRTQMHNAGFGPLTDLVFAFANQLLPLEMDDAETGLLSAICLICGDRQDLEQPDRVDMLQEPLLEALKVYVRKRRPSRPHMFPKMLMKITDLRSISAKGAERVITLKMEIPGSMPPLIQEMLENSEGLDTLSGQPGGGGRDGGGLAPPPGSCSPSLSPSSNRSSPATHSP

Mus musculus = species on record: Mus musculus; assay: Concentration that induces 30% utriculi reduction in rhino mouse.; assay type: functional
[3] = biological target: T3, Retinoic acid receptor gamma (Homo sapiens) (UniProt P13631); assay: Transcriptional activation of retinoic acid RAR-gamma receptor; Not active
T3 sequence (whole entry): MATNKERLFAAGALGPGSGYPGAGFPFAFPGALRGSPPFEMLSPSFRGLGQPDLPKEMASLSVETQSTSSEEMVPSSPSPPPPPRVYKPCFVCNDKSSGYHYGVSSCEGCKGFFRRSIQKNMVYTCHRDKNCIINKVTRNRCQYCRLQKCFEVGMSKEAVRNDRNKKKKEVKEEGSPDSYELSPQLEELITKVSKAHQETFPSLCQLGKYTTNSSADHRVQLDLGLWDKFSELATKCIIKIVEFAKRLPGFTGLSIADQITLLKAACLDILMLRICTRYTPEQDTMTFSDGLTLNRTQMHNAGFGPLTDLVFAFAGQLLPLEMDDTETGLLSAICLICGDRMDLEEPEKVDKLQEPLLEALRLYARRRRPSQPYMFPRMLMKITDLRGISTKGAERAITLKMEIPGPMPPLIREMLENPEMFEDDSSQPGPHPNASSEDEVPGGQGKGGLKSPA

Row | EC50 ratio [1] | EC50 ratio [2] | EC50 ratio [3] | Structure (SMILES) | ED30 (Mus musculus) [mM]
1 | inactive | inactive |  | CC1(C)CCC(C)(C)c2cc(C(=O)c3cccc(/C=C/C(=O)O)c3)ccc21 | 
2 |  | inactive |  | CC1(C)CCC(C)(C)c2cc(C(=O)c3ccc(/C=C\C(=O)O)cc3)ccc21 | 
3 | inactive | inactive | inactive | CC1(C)CCC(C)(C)c2cc(C(O)c3ccc(/C=C/C(=O)O)cc3)ccc21 (stereo unspecified) | 1.74
4 |  | inactive |  | CC1(C)CCC(C)(C)c2cc(C(=O)c3ccc(C#CC(=O)O)cc3)ccc21 | 1
5 |  | inactive |  | C/C(=C\C(=O)O)c1ccc(C(=O)c2ccc3c(c2)C(C)(C)CCC3(C)C)cc1 | 
6 |  | inactive |  | Cc1cc(C(=O)c2ccc3c(c2)C(C)(C)CCC3(C)C)ccc1/C=C/C(=O)O | 0.184

More lines, now with the values behind:

Row | Structure (SMILES) | EC50 ratio [1] | EC50 ratio [2] | EC50 ratio [3] | ED30 (Mus musculus) [mM]
7 | CC1(C)CCC(C)(C)c2cc(C(=O)c3ccc(/C=C/C(=O)O)cc3)ccc21 |  |  |  | 0.054
8 | CC1(C)CCC(C)(C)c2cc(C(O)c3cccc(/C=C/C(=O)O)c3)ccc21 (stereo unspecified) | inactive | inactive | inactive | 
9 | CC1(C)CCC(C)(C)c2cc(C(O)c3ccc4cc(C(=O)O)ccc4c3)ccc21 (stereo unspecified) |  |  |  | 0.223
10 | CC1(C)CCC(C)(C)c2cc(C(=O)c3ccc4cc(C(=O)O)ccc4c3)ccc21 |  |  |  | 0.029
11 | C/C(=C\c1ccc(C(=O)c2ccc3c(c2)C(C)(C)CCC3(C)C)cc1)C(=O)O |  |  |  | 0.092
12 | CC1(C)CCC(C)(C)c2cc(C(O)/C=C/c3ccc(C(=O)O)cc3)ccc21 (stereo unspecified) |  |  |  | 0.065
13 | CC1(C)CCC(C)(C)c2cc(C(=O)/C=C/c3ccc(C(=O)O)cc3)ccc21 |  |  |  | 0.0034
